Columns and labels:
Conditions in all cases: 48 h
NCI-H295R [1] = test: AC50 viability; higher = less potent
Outline: (§1)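 In 1,536-well plates, 500–1,000 cells/well of three adrenocortical carcinoma cell lines in 5 µL medium received 23 nL of each library compound across 11 concentrations. At 48 h, CellTiter-Glo was incubated for 15 minutes at room temperature and luminescence measured. Per-plate normalisation used vehicle and empty-well controls, and only inhibitory or non-responding curve classes were kept when fitting concentration-response curves for AC50 and area under the curve.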

CU-ACC2 [2] = test: AC50 viability; higher = less potent
Outline: as §1

NCI-H295R [3] = test: area under concentration-response curve (viability) (AUC (a.u.)); higher = less active
Outline: as §1

CU-ACC2 [4] = test: as above
Outline: as §1

CU-ACC1 = test: as above
Outline: as §1

Row | SMILES | AC50 viability (NCI-H295R [1]) [µM] | AC50 viability (CU-ACC2 [2]) [µM] | area under concentration-response curve (NCI-H295R [3]) | area under concentration-response curve (CU-ACC2 [4]) | area under concentration-response curve (CU-ACC1)
1 | CNC(=O)c1nn(C)c2c1C(C)(C)Cc1cnc(Nc3ccc(N4CCN(C)CC4)cc3)nc1-2 | 18.6 | 7.42 | 473 | 483 | 
2 | C[C@H]1[C@H](OC(=O)CCC(=O)O)O[C@@H]2O[C@@]3(C)CC[C@H]4[C@H](C)CC[C@@H]1[C@@]24OO3 | 20.9 | 20.9 | 522 | 585 | 354
3 | O=C1Nc2cc(Br)ccc2/C1=C1/Nc2ccccc2/C1=N\O | 23.5 | 18.6 | 511 | 515 | 480
4 | COC1=CC(=C2C(=O)N(COC/3=C/C(=O)N4\C=C/C=C(OCCN5CCCCC5)\C4=N3)[S+]([O-])(=O)C2=C1)C(C)C | 37.2 | 20.9 | 541 | 584 | 
5 | CCC[C@@H](C=O)NC(=O)[C@H](CC(C)C)NC(=O)[C@H](CC(C)C)NC(=O)OCc1ccccc1 | 1.18 | 1.48 | 439 | 438 | 417
6 | Nc1nc(N)c(N=O)c(OCC2CCCCC2)n1 | 9.34 | 20.9 | 451 | 492 | 466
7 | CN[C@H]1CCC2=CC(=C(OC)C(=C2C/3=C/C=C(OC)\C(=O)/C=C13)OC)OC | 0.0934 | 0.468 | 417 | 463 | 478
8 | CC[S+](=O)([O-])N1CC(CC#N)(n2cc(-c3ncnc4[nH]ccc34)cn2)C1 | 18.6 | 20.9 | 513 | 530 | 472
9 | CCCCC(C)(C)[C@H](O)/C=C/[C@H]1[C@H](O)CC(=O)[C@@H]1C/C=C\CCCC(=O)O | 0.00372 | 0.105 | 211 | 307 | 325
10 | O=c1[nH]c2ccccc2n1C1CCN(Cc2ccc(-c3nc4cc5nc[nH]c5cc4nc3-c3ccccc3)cc2)CC1 | 20.9 | 20.9 | 492 | 604 | 558
11 | C=CC(=O)Nc1cccc(Oc2nc(Nc3ccc(N4CCN(C)CC4)c(F)c3)nc3[nH]ccc23)c1 | 20.9 | 18.6 | 492 | 557 | 504
12 | Cc1cc(C(=O)Nc2cc(Nc3ccc4c(/C=C/c5ccccn5)[nH]nc4c3)ccc2F)n(C)n1 | 23.5 | 23.5 | 525 | 572 | 
13 | OC1=CC2=C(C(=C1)O)C(=O)\C=C(/O2)C3=CC=CC=C3 | 0.263 | 1.66 | 437 | 416 | 397
14 | O=C(Nc1cc(Oc2cc(F)c(NC(=O)C3(C(=O)Nc4ccc(F)cc4)CC3)cc2F)ccn1)C1CC1 | 10.5 | 8.33 | 482 | 504 | 445
15 | Nc1nc(Nc2ccc3c(c2)CC[C@@H](N2CCCC2)CC3)nn1-c1cc2c(nn1)-c1ccccc1CCC2 | 23.5 | 23.5 | 441 | 534 | 
16 | CC1=N[NH]C=C1C2=CC\3=C(S2)C(=O)NC(=N3)\[C@@H]4CC5CCN4CC5 | 23.5 | 10.5 | 529 | 476 | 
17 | CC(C)(N)c1ccc(-c2nc3ccccc3nc2-c2ccccc2)cc1 |  | 0.372 | 354 | 297 | 336
18 | CC(/C=C/C(=O)NO)=C\[C@@H](C)C(=O)c1ccc(N(C)C)cc1 |  | 1.05 | 487 | 463 | 417
19 | COc1cc2nc(-c3cc(F)ccc3O)nc(N[C@@H]3CNC[C@H]3C(C)(C)O)c2cc1OC | 3.72 | 4.17 | 412 | 430 | 
20 | O=C(Nc1cccc(Nc2ncc(Br)c(NCCc3cnc[nH]3)n2)c1)N1CCCC1 | 23.5 | 16.6 | 397 | 418 | 
21 | COC(=O)Nc1nc2cc(Sc3ccccc3)ccc2[nH]1 |  | 5.25 | 431 | 393 | 368
22 | O=C(NCc1ccc([S+](=O)([O-])c2cccc(C(F)(F)F)c2)cc1)c1cnc2[nH]ncc2c1 |  | 0.0186 | 407 | 362 | 347
23 | COc1ccc(-c2c(-c3ccc(O)cc3O)n[nH]c2C)cc1 | 0.00296 | 0.105 | 71.5 | 224 | 
24 | CC(C)c1cccc(C(C)C)c1O |  | 14.8 | 415 | 400 | 362
25 | Cc1cc2c(cc1CC(=O)c1sccc1[S+](=O)([O-])Nc1onc(C)c1Cl)OCO2 | 0.00417 | 0.105 | 127 | 242 | 
26 | Cc1ccc(Nc2ncc3c(n2)N(C)C(=O)N(c2cc(NC(=O)c4cccc(C(F)(F)F)c4)ccc2C)C3)cn1 |  | 5.25 | 532 | 504 | 501
27 | CC(C)(C)C(=O)Oc1ccc([S+](=O)([O-])Nc2ccccc2C(=O)NCC(=O)O)cc1 |  | 0.105 | 348 | 313 | 318
28 | CC1(C)SCCN([S+](=O)([O-])c2ccc(OCC#CCO)cc2)[C@H]1C(=O)NO |  | 2.95 | 421 | 437 | 446
29 | NC(=O)c1ccc2[nH]ccc2c1 |  | 0.59 | 395 | 360 | 345
30 | FC(F)(F)c1ccc(Nc2nc(-c3c(C(F)(F)F)nc4ccccn34)cs2)cc1 | 5.25 | 20.9 | 413 | 529 | 
